The subject of data set [1] is Halomonas aquamarina. In words: Antibacterial activity against Alcaligenes aquamarinus at 100 ug/disk after 24 hrs by paper disk diffusion assay. The settings on record: Vreelandella aquamarina. Type of data set: functional, organism-based. (In general: Agar diffusion results depend on both activity and mobility in agar.)
Data set [2] can be described thus: Toxicity against Artemia salina nauplii after 24 hrs. Type of data set: organism-based. The settings on record: in vivo.
The test system of data set [3] is Escherichia coli. The data set can be described thus: Antibacterial activity against Escherichia coli at 100 ug/disk after 24 hrs by paper disk diffusion assay. Type of data set: functional, organism-based.

Molecules are shown by their SMILES. Calls of active or inactive are those of the source. No cut-off for these calls is given here.

By LC50 is commonly meant the concentration that kills 50% of the test population. A low value points to a more lethal substance. Turning to `C#C/C=C\C[C@@H]1O[C@H](/C=C/C)C/C=C\C[C@@H]1Cl`, the result in data set [1] and in data set [3] was inactive. This compound also registered an LC50 at 24 h in data set [2] of 467 µM.
For `CC1(C)[C@H](Br)C[C@H](O)[C@]1(C)[C@@]1(O)CC[C@]2(C)[C@@H](Br)CC[C@@](C)(O)[C@@]2(O)C1` [NEOIRIETETRAOL], the result in data set [1] and in data set [3] was Active. Also, in data set [2], the LC50 at 24 h was found to be 40.1 µM.
